Results: patent publication US8536201B2, “Pesticidal arylpyrrolidines” (Bayer Intellectual Property GmbH, priority 2009, dated 2013)

How the values were obtained:
Type in all cases: in vivo
Spodoptera litura [1] = test: Tobacco cutworm (Spodoptera litura) larvae, sweet potato leaf dip test; conditions: 20 ppm; third instar larvae, treated sweet potato leaves, after 7 days
Description: Unless not mentioned otherwise, the test solutions were prepared as follows:
Solvent: dimethyl formamide, 3 parts by weight
Emulsifier: polyoxyethylene alkyl phenyl ether, 1 part by weight
To prepare the test solution, 1 part by weight of an active compound is mixed with the above-mentioned amount of solvent containing the above-mentioned amount of emulsifier, and the mixture is diluted with water to the desired concentration.
BIOLOGICAL TEST EXAMPLE 1.1
Tobacco Cutworm (Spodoptera litura) Larvae
Leaves of sweet potato were immersed in the test solution at the appropriate concentration, and the leaves were dried in air. The leaves were then placed in a petri dish having a diameter of 9 cm, and ten Spodoptera litura at third instar larvae were released therein. The petri dishes were placed in a temperature-controlled chamber at 25° C. After 2 days and 4 days more sweet potato leaves were added. After 7 days, the number of dead larvae was counted to calculate the insecticidal activity. An insecticidal activity of 100% means that all larvae were killed, whereas an insecticidal activity of 0% means that no larva was killed. In the current test, the results of two petri dishes for each treatment were averaged.

Spodoptera litura [2] = test: Tobacco cutworm (Spodoptera litura) larvae using artificial diet; conditions: 20 ppm, 3rd-instar larvae
Description: BIOLOGICAL TEST EXAMPLE 1.2
Tobacco Cutworm (Spodoptera litura) Larvae Using Artificial Diet
2.3 g of artificial diet powder is put into a PET cup (7.5 cm diameter, 4 cm depth). The powder was leveled to make a layer in the bottom of the cup. 5 ml of a chemical solution is poured onto the powder and spread uniformly. The cup with treated diet powder is placed quiet to let the diet jell. Into each testing cup five 3rd-instar larvae were released. The testing cup is closed with the lid and placed in a temperature-controlled room at 25° C. and 50-60% R.H., 16L8D lighting conditions.
The mortality in % was determined according to the following criteria:
1 larva dead: 20% Efficacy
5 larvae dead: 100% Efficacy

Aulacophora femoralis = test: Cucurbit leaf beetle (Aulacophora femoralis) cucumber leaf dip test; conditions: second instar larvae, treated cucumber leaves, after 7 days
Description: BIOLOGICAL TEST EXAMPLE 3
Cucurbit Leaf Beetle (Aulacophora femoralis)
Leaves of cucumber were immersed in the test solution at the appropriate concentration, and the leaves were dried in air. The leaves were then put in a plastic cup containing sterilized black soil and five Aulacophora femoralis at second instar larvae were released in the cup. The cups were placed in a temperature-controlled chamber at 25° C. After 7 days, the number of dead larvae was counted, and thus the insecticidal activity was calculated. An insecticidal activity of 100% means that all larvae were killed, whereas an insecticidal activity of 0% means that no larva was killed.

Tetranychus urticae = test: Two-spotted spider mite Tetranychus urticae spray test on kidney bean; conditions: adult mites, after 7 days
Description: BIOLOGICAL TEST EXAMPLE 2
Two-Spotted Spider Mite Tetranychus urticae
50 to 100 adult mites of Tetranychus urticae were inoculated to leaves of kidney bean at two-leaf stage planted in a pot of 6 cm in diameter. After one day, test solution at the appropriate concentration was sprayed thereon in a sufficient amount using a spray gun. After the spraying, the plant pot was placed inside a greenhouse, and after 7 days, the acaricidal activity was calculated. An acaricidal activity of 100% means that all mites were killed, an acaricidal activity of 0% means that no mite was killed.

Ctenocephalides felis = Ctenocephalides felis test (CTECFE), blood feeding; conditions: 100 ppm in cattle blood; adult unfed fleas, after 2 days
Description: BIOLOGICAL TEST EXAMPLE 7
Ctenocephalides felis—Test (CTECFE)
Solvent: Dimethyl Sulfoxide
To produce a suitable preparation of active compound, 10 mg of active compound are dissolved in 0.5 ml solvent, and the concentrate is diluted with cattle blood to the desired concentration. Approximately 20 adult unfed (Ctenocephalides felis) are placed in flea chambers. The blood chamber, sealed with parafilm on the bottom, are filled with cattle blood supplied with compound solution and placed on top of the flea chamber, so that the fleas are able to suck the blood. The blood chamber is heated to 37° C. whereas the flea chamber is kept at room temperature.
After 2 days mortality in % is determined. 100% means that all the fleas have been killed; 0% means that none of the fleas have been killed.

Work on CC(=O)NC(C)c1ccc(N2CCC(c3cc(Cl)cc(Cl)c3)(C(F)(F)F)C2)cc1 (racemic) [Compound 1] yielded an insecticidal activity (Spodoptera litura [1]) of 100%, an insecticidal activity (Spodoptera litura [2]) of 100% and an insecticidal activity (Aulacophora femoralis; 100 ppm) of 100%.

With CCC(=O)NC(C)c1ccc(N2CCC(c3cc(Cl)cc(Cl)c3)(C(F)(F)F)C2)cc1 (racemic) [Compound 2] the insecticidal activity (Spodoptera litura [1]) was 100%, the insecticidal activity (Spodoptera litura [2]) was 100% and the insecticidal activity (Tetranychus urticae; 100 ppm) was 100%. The insecticidal activity (Aulacophora femoralis; 20 ppm) was 100% and the “activity (mortality in %)” value (Ctenocephalides felis) was 95%.

Molecule CCC(=O)NC(C)c1ccc(N2CCC(c3cc(Cl)cc(C(F)(F)F)c3)(C(F)(F)F)C2)cc1 (racemic) [Compound 4] has an insecticidal activity (Spodoptera litura [1]) of 100%, an insecticidal activity (Spodoptera litura [2]) of 100% and an insecticidal activity (Tetranychus urticae; 20 ppm) of 100%. For the same molecule, the insecticidal activity (Aulacophora femoralis; 20 ppm) was 100%.

CC(NC(=O)C1CC1)c1ccc(N2CCC(c3cc(Cl)cc(C(F)(F)F)c3)(C(F)(F)F)C2)cc1 (racemic) [Compound 5] showed an insecticidal activity (Spodoptera litura [1]) of 100%, an insecticidal activity (Spodoptera litura [2]) of 100% and an insecticidal activity (Tetranychus urticae; 20 ppm) of 100%. For the same molecule, the insecticidal activity (Aulacophora femoralis; 20 ppm) was 100%.

Molecule CC(=O)NC(C)c1ccc(N2CCC(c3cc(Cl)c(Cl)c(Cl)c3)(C(F)(F)F)C2)cc1 (racemic) [Compound 6] has an insecticidal activity (Spodoptera litura [1]) of 100%, an insecticidal activity (Spodoptera litura [2]) of 100% and an insecticidal activity (Tetranychus urticae; 20 ppm) of 100%.

Molecule CCC(=O)NC(C)c1ccc(N2CCC(c3cc(Cl)c(Cl)c(Cl)c3)(C(F)(F)F)C2)cc1 (racemic) [Compound 7] has an insecticidal activity (Spodoptera litura [1]) of 100%, an insecticidal activity (Spodoptera litura [2]) of 100% and an insecticidal activity (Tetranychus urticae; 20 ppm) of 100%. For the same molecule, the insecticidal activity (Aulacophora femoralis; 100 ppm) was 100%.

With CC(=O)NC(C)c1ccc(N2CCC(c3cc(C(F)(F)F)cc(C(F)(F)F)c3)(C(F)(F)F)C2)cc1 (racemic) [Compound 9] the insecticidal activity (Spodoptera litura [1]) was 100% and the insecticidal activity (Spodoptera litura [2]) was 100%.

In the case of CC(NC(=O)C1CC1)c1ccc(N2CCC(c3cc(C(F)(F)F)cc(C(F)(F)F)c3)(C(F)(F)F)C2)cc1 (racemic) [Compound 11], the insecticidal activity (Spodoptera litura [1]) was 100%, the insecticidal activity (Spodoptera litura [2]) was 100% and the insecticidal activity (Tetranychus urticae; 20 ppm) was 100%. For the same molecule, the insecticidal activity (Aulacophora femoralis; 20 ppm) was 100%.

In the case of CC(NC(=O)CC1CC1)c1ccc(N2CCC(c3cc(Cl)c(Cl)c(Cl)c3)(C(F)(F)F)C2)cc1 (racemic) [Compound 12], the insecticidal activity (Spodoptera litura [2]) was 100%, the insecticidal activity (Tetranychus urticae; 20 ppm) was 100% and the “activity (mortality in %)” value (Ctenocephalides felis) was 95%.

CC(NC(=O)CC1CC1)c1ccc(N2CCC(c3cc(C(F)(F)F)cc(C(F)(F)F)c3)(C(F)(F)F)C2)cc1 (racemic) [Compound 13] was tested, and the insecticidal activity (Spodoptera litura [2]) was 100% and the insecticidal activity (Tetranychus urticae; 20 ppm) was 100%.

COCCC(=O)NC(C)c1ccc(N2CCC(c3cc(Cl)c(Cl)c(Cl)c3)(C(F)(F)F)C2)cc1 (racemic) [Compound 14] showed an insecticidal activity (Spodoptera litura [2]) of 100%, an insecticidal activity (Tetranychus urticae; 20 ppm) of 100% and an insecticidal activity (Aulacophora femoralis; 100 ppm) of 100%. For the same molecule, the “activity (mortality in %)” value (Ctenocephalides felis) was 90%.

CC(=O)N[C@@H](C)c1ccc(N2CCC(c3cc(Cl)cc(Cl)c3)(C(F)(F)F)C2)cc1 (stereo partly shown) [Compound 1-b] was tested, and the insecticidal activity (Spodoptera litura [1]) was 100%, the insecticidal activity (Spodoptera litura [2]) was 100% and the insecticidal activity (Tetranychus urticae; 100 ppm) was 100%. For the same molecule, the insecticidal activity (Aulacophora femoralis; 20 ppm) was 100%.

In the case of CCC(=O)N[C@@H](C)c1ccc(N2CCC(c3cc(Cl)cc(Cl)c3)(C(F)(F)F)C2)cc1 (stereo partly shown) [Compound 2-b], the insecticidal activity (Spodoptera litura [1]) was 100%, the insecticidal activity (Spodoptera litura [2]) was 100% and the insecticidal activity (Aulacophora femoralis; 20 ppm) was 100%.

For CC(=O)NC(C)c1ccc(N2CCC(c3cc(Cl)cc(Cl)c3)(C(F)(F)F)C2)cc1Cl (stereo not shown) [Compound 3-66, reference compound], the insecticidal activity (Spodoptera litura [1]) was 20% and the insecticidal activity (Aulacophora femoralis; 20 ppm) was 50%.

C[C@H](NC(=O)C1CC1)c1ccc(N2CCC(c3cc(Cl)cc(Cl)c3)(C(F)(F)F)C2)cc1 (stereo partly shown) [Compound 3-b] showed an insecticidal activity (Spodoptera litura [1]) of 100%, an insecticidal activity (Spodoptera litura [2]) of 100% and an insecticidal activity (Tetranychus urticae; 20 ppm) of 100%. It also gave an insecticidal activity (Aulacophora femoralis; 20 ppm) of 100%.

CCC(=O)N[C@@H](C)c1ccc(N2CCC(c3cc(Cl)cc(C(F)(F)F)c3)(C(F)(F)F)C2)cc1 (stereo partly shown) [Compound 4-b] was tested, and the insecticidal activity (Spodoptera litura [1]) was 100%, the insecticidal activity (Spodoptera litura [2]) was 100% and the insecticidal activity (Tetranychus urticae; 20 ppm) was 100%. For the same molecule, the insecticidal activity (Aulacophora femoralis; 20 ppm) was 100%.

C[C@H](NC(=O)C1CC1)c1ccc(N2CCC(c3cc(Cl)cc(C(F)(F)F)c3)(C(F)(F)F)C2)cc1 (stereo partly shown) [Compound 5-b] was tested, and the insecticidal activity (Spodoptera litura [1]) was 100%, the insecticidal activity (Spodoptera litura [2]) was 100% and the insecticidal activity (Tetranychus urticae; 20 ppm) was 100%. For the same molecule, the insecticidal activity (Aulacophora femoralis; 20 ppm) was 100%.

With CC(=O)N[C@@H](C)c1ccc(N2CCC(c3cc(Cl)c(Cl)c(Cl)c3)(C(F)(F)F)C2)cc1 (stereo partly shown) [Compound 6-b] the insecticidal activity (Spodoptera litura [1]) was 100%, the insecticidal activity (Spodoptera litura [2]) was 100% and the insecticidal activity (Tetranychus urticae; 20 ppm) was 100%.

In the case of CCC(=O)N[C@H](C)c1ccc(N2CCC(c3cc(Cl)c(Cl)c(Cl)c3)(C(F)(F)F)C2)cc1 (stereo partly shown) [Compound 7-a], the insecticidal activity (Aulacophora femoralis; 100 ppm) was 100% and the “activity (mortality in %)” value (Ctenocephalides felis) was 80%.

Molecule CCC(=O)N[C@@H](C)c1ccc(N2CCC(c3cc(Cl)c(Cl)c(Cl)c3)(C(F)(F)F)C2)cc1 (stereo partly shown) [Compound 7-b] has an insecticidal activity (Spodoptera litura [1]) of 100%, an insecticidal activity (Spodoptera litura [2]) of 100% and an insecticidal activity (Tetranychus urticae; 20 ppm) of 100%. It also gave an insecticidal activity (Aulacophora femoralis; 20 ppm) of 100%.

In the case of C[C@H](NC(=O)C1CC1)c1ccc(N2CCC(c3cc(Cl)c(Cl)c(Cl)c3)(C(F)(F)F)C2)cc1 (stereo partly shown) [Compound 8-b], the insecticidal activity (Spodoptera litura [1]) was 100%, the insecticidal activity (Spodoptera litura [2]) was 100% and the insecticidal activity (Tetranychus urticae; 20 ppm) was 100%. For the same molecule, the insecticidal activity (Aulacophora femoralis; 20 ppm) was 100% and the “activity (mortality in %)” value (Ctenocephalides felis) was 95%.

For CCC(=O)N[C@H](C)c1ccc(N2CCC(c3cc(C(F)(F)F)cc(C(F)(F)F)c3)(C(F)(F)F)C2)cc1 (stereo partly shown) [Compound 10-a], the insecticidal activity (Aulacophora femoralis; 20 ppm) was 100% and the “activity (mortality in %)” value (Ctenocephalides felis) was 90%.

Work on CCC(=O)N[C@@H](C)c1ccc(N2CCC(c3cc(C(F)(F)F)cc(C(F)(F)F)c3)(C(F)(F)F)C2)cc1 (stereo partly shown) [Compound 10-b] yielded an insecticidal activity (Spodoptera litura [1]) of 100%, an insecticidal activity (Spodoptera litura [2]) of 100% and an insecticidal activity (Tetranychus urticae; 20 ppm) of 100%. For the same molecule, the insecticidal activity (Aulacophora femoralis; 20 ppm) was 100%.

With C[C@H](NC(=O)CC1CC1)c1ccc(N2CCC(c3cc(Cl)c(Cl)c(Cl)c3)(C(F)(F)F)C2)cc1 (stereo partly shown) [Compound 12-b] the insecticidal activity (Spodoptera litura [2]) was 100%, the insecticidal activity (Tetranychus urticae; 20 ppm) was 100% and the insecticidal activity (Aulacophora femoralis; 100 ppm) was 100%.

For C[C@H](NC(=O)CC1CC1)c1ccc(N2CCC(c3cc(C(F)(F)F)cc(C(F)(F)F)c3)(C(F)(F)F)C2)cc1 (stereo partly shown) [Compound 13-b], the insecticidal activity (Spodoptera litura [2]) was 100%, the insecticidal activity (Tetranychus urticae; 20 ppm) was 100% and the insecticidal activity (Aulacophora femoralis; 100 ppm) was 100%.

Molecule COCCC(=O)N[C@@H](C)c1ccc(N2CCC(c3cc(Cl)c(Cl)c(Cl)c3)(C(F)(F)F)C2)cc1 (stereo partly shown) [Compound 14-b] has an insecticidal activity (Spodoptera litura [2]) of 100%, an insecticidal activity (Tetranychus urticae; 20 ppm) of 100% and an insecticidal activity (Aulacophora femoralis; 100 ppm) of 100%.

Molecule C[C@H](NC(=O)c1c(F)cc(F)cc1F)c1ccc(N2CCC(c3cc(C(F)(F)F)cc(C(F)(F)F)c3)(C(F)(F)F)C2)cc1 (stereo partly shown) [Compound 16-b] has an insecticidal activity (Spodoptera litura [2]) of 100%, an insecticidal activity (Tetranychus urticae; 20 ppm) of 100% and an insecticidal activity (Aulacophora femoralis; 20 ppm) of 100%.

C[C@H](NC(=O)C1CC1)c1ccc(N2CCC(c3cc(C(F)(F)F)nc(C(F)(F)F)c3)(C(F)(F)F)C2)cc1 (stereo partly drawn) [Compound 17-b, N-[(1S)-1-(4-{3-[2,6-bis(trifluoromethyl)pyridin-4-yl]-3-(trifluoromethyl)pyrrolidin-1-yl}phenyl)ethyl]cyclopropanecarboxamide] was tested, and the insecticidal activity (Spodoptera litura [2]) was 100%, the insecticidal activity (Tetranychus urticae; 20 ppm) was 100% and the insecticidal activity (Aulacophora femoralis; 20 ppm) was 100%.
